Data set [1] can be described thus: Stability of the cocrystal under forced conditions of humidity and temperature (ICH), XRPD. In kind it is physicochemical. The following applies: 40° C. How it is done:
[…] The solids were analyzed by XRPD every day during the first week and once a week afterwards, to detect possible crystalline transformations.

Data set [2] in a line: Solubility of cocrystals in water at room temperature, relative to bilastine (HPLC). The following applies: 400 mg of product in 24 ml, result in words, data only in figures.
Experimental: Solubility of cocrystals was determined by stirring the product in water at room temperature (400 mg of product in 24 ml of water, 60 vol.). The product was previously milled in order to reduce the crystal size effect. A sample is collected and filtered using a sintered funnel (n° 3) periodically (30, 60, 180 min and after overnight). The filtered solid was immediately analyzed by XRPD, while the mother liquors are filtered through a 0.22 um filter and the concentration of Bilastine is determined by HPLC area (in some experiments where a high solubility was detected the mother liquor was diluted by a factor 10). This concentration is compared with the Bilastine concentration obtained in the same conditions in order to determine a relative solubility.
HPLC analyses were performed by duplicate on an Agilent 1100 series apparatus with a XBridge C-18 column at room temperature. 25μL sample were injected. The mobile phase (isocratic) was set as following: 52%(Methanol:aqueous octylamine 0.01M pH=7, 65:35)−42% (Acetonitrile:aqueous octylamine 0.01M pH=7, 60:40)
For data set [3] the following is noted: bilastine as zwitterion; cited from earlier work.
For data set [4] the following is noted: pH range 5-8; cited from earlier work.
The nature of the next data set: ΔpKa bilastine-coformer. In kind it is physicochemical.

The values that follow come from patent publication US20180319766A1, “CO-CRYSTALS OF BENZIMIDAZOLE COMPOUNDS” (FAES FARMA, S.A., priority 2015, published 2018).

SMILES strings stand for the structures.

For `CCOCCn1c(C2CCN(CCc3ccc(C(C)(C)C(=O)O)cc3)CC2)nc2ccccc21.CCOCCn1c(C2CCN(CCc3ccc(C(C)(C)C(=O)O)cc3)CC2)nc2ccccc21.O=C(O)CCCCC(=O)O` [AD(III)], the “Time the crystalline form is stable under forced conditions (XRPD)” value (from here on “Time the crystalline form is stable”) in data set [1] (70±5% RH) is on record as “at least 1 weeks”. As to `CC=CC=CC(=O)O.CCOCCn1c(C2CCN(CCc3ccc(C(C)(C)C(=O)O)cc3)CC2)nc2ccccc21.CCOCCn1c(C2CCN(CCc3ccc(C(C)(C)C(=O)O)cc3)CC2)nc2ccccc21` [SO(I)], the “Time the crystalline form is stable” value in data set [1] (75±5% RH) was “at least 1 week”. Further, the “Solubility comparison with bilastine BLN(I)” value in data set [2] is “improves greatly the solubility of bilastine”.

Turning to `CCOCCn1c(C2CCN(CCc3ccc(C(C)(C)C(=O)O)cc3)CC2)nc2ccccc21.O=C(O)CCCC(=O)O` [GL(V)], in data set [1] (70±5% RH), the “Time the crystalline form is stable” value is “at least 4 weeks”. Consider `CCOCCn1c(C2CCN(CCc3ccc(C(C)(C)C(=O)O)cc3)CC2)nc2ccccc21.CCOCCn1c(C2CCN(CCc3ccc(C(C)(C)C(=O)O)cc3)CC2)nc2ccccc21.Nc1ccc(C(=O)O)cc1` [AB(VIII)], for which the “Time the crystalline form is stable” value in data set [1] (75±5% RH) was “at least 1 week”.

With `CCOCCn1c(C2CCN(CCc3ccc(C(C)(C)C(=O)O)cc3)CC2)nc2ccccc21.CCOCCn1c(C2CCN(CCc3ccc(C(C)(C)C(=O)O)cc3)CC2)nc2ccccc21.O=C(O)CCCC(=O)O` [GL(I)], the “Time the crystalline form is stable” value in data set [1] (70±5% RH) was “at least 4 weeks”.

As for `CCOCCn1c(C2CCN(CCc3ccc(C(C)(C)C(=O)O)cc3)CC2)nc2ccccc21.O=C(O)CCCCC(=O)O` [AD(I)], in data set [1] (70±5% RH), the “Time the crystalline form is stable” value is listed as “at least 1 weeks”. Regarding `CCOCCn1c(C2CCN(CCc3ccc(C(C)(C)C(=O)O)cc3)CC2)nc2ccccc21.O=C(O)CCC(=O)O` [SU(VI)], the “Time the crystalline form is stable” value in data set [1] (75±5% RH) is on record as “at least 1 week”. Same read-out and setting: with `CCOCCn1c(C2CCN(CCc3ccc(C(C)(C)C(=O)O)cc3)CC2)nc2ccccc21.Nc1ccc(C(=O)O)cc1` [AB(VII)] the entry was “at least 1 week”; with `CCOCCn1c(C2CCN(CCc3ccc(C(C)(C)C(=O)O)cc3)CC2)nc2ccccc21.CCOCCn1c(C2CCN(CCc3ccc(C(C)(C)C(=O)O)cc3)CC2)nc2ccccc21.O=C(O)CCC(=O)O` [SU(VII)], “at least 1 week”. `CCOCCn1c(C2CCN(CCc3ccc(C(C)(C)C(=O)O)cc3)CC2)nc2ccccc21` [bilastine, 2-[4-(2-{4-[1-(2-Ethoxyethyl)-1H-benzimidazol-2-yl]-1-piperidinyl}ethyl)phenyl]-2-methylpropanoic acid]: in data set [3], the “pKa of the acid function (carboxylate)” value is listed as 4.4 and the “pKa of the base function (protonated amine)” value is listed as 8.8. The Solubility entry in data set [4] was “around 500 μg/mL”. In turn, `O=C(O)C[C@H](O)C(=O)O` [L-Malic acid] gave a ΔpKa bilastine-coformer in “ΔpKa bilastine-coformer” of 0.94.
